Values belong to the molecule of their own block, whether it stands above or below them.
Legend:
CYP4A11 = target: T1, CYP4A11 (Homo sapiens, UniProt Q02928); assay: inhibition of lauric acid omega-hydroxylation by CYP4A11 supersomes, HPLC-fluorescence, Lineweaver-Burk; type: biochemical
T1 sequence (Q02928 5-519): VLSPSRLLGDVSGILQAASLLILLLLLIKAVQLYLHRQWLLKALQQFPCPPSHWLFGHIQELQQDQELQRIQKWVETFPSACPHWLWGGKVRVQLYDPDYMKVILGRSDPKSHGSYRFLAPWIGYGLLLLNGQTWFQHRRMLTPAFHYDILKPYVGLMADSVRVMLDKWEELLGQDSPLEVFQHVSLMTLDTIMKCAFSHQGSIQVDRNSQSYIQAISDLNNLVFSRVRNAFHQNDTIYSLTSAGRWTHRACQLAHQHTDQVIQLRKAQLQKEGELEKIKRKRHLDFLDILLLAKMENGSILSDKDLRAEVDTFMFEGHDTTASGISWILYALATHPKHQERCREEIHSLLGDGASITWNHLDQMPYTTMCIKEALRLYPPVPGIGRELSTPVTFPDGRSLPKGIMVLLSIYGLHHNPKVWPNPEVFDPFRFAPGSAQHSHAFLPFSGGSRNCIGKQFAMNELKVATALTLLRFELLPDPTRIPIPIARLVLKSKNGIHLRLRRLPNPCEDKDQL

CYP2E1 = CYP2E1 (Oryctolagus cuniculus, UniProt P08682); assay: time- and concentration-dependent (mechanism-based) inactivation of 7-EFC O-deethylation, KI with kinact […] min^-1; type: biochemical; conditions: read-out: KI_inact
CYP2E1, sequence (P08682 whole entry): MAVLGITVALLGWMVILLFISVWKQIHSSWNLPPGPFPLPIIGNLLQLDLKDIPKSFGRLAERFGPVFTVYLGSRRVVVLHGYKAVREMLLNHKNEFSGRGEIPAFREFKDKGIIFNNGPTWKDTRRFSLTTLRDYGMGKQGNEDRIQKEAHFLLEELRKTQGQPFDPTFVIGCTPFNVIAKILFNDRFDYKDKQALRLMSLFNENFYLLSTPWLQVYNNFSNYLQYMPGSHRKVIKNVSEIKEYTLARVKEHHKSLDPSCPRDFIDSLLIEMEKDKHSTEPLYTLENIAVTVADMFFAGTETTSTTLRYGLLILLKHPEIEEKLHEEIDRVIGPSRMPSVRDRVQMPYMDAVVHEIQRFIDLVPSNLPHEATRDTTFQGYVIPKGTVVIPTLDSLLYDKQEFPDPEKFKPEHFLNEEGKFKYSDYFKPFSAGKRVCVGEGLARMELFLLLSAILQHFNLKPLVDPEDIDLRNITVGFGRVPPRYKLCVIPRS

[1] = substrate: CCCCCCCCCCCC(=O)O; assay: Michaelis-Menten kinetics of omega-hydroxylation by CYP4A11 supersomes (Km); type: biochemical, Homo sapiens; conditions: heme; NADPH

Ki (CYP4A11): 9 ± 1 µM | KI (inactivation) (CYP2E1): 312 µM
Molecule: CCCCCCCCCCCCOC(=S)S [C12, potassium O-dodecyl carbonodithioate]

B1: CYP4A11 (Homo sapiens) (protein)
chain: T1 sequence (Q02928 5-519)
Km [1]: 11.8 µM

From publication PMC5614966, “Xanthates As Useful Probes for Testing the Active Sites of Cytochromes P450 4A11 and 2E1” (Frontiers in Pharmacology, 2017)
